Legend:
[1] = target: T1, Cytochrome P450 1A2 (Homo sapiens, UniProt P05177); details: bti-tn-5b1-4; further: in other assays of this panel Not Active means under 50% inhibition at 10 µM
T1 sequence (P05177 whole entry): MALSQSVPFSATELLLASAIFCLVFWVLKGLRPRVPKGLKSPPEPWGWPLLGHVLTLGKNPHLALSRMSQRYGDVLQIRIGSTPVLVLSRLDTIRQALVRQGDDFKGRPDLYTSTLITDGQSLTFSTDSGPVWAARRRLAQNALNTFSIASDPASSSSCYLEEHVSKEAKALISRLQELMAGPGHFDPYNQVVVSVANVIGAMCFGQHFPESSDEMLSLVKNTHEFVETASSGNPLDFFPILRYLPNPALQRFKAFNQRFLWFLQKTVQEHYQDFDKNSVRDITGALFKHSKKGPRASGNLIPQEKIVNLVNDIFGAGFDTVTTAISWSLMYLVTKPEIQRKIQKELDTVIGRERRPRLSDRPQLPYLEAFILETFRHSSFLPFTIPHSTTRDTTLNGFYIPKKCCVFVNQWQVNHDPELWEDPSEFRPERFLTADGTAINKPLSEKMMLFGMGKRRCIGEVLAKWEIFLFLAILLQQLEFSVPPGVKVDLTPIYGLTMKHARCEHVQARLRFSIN

[2] = target: T2, D(4) dopamine receptor (Homo sapiens, UniProt P21917); test: DRUGMATRIX: Dopamine D4.2 radioligand binding (ligand: [3H] Spiperone); format: cell membranes, CHO-K1, Membrane; details: cho-k1; Not Active = under 50% inhibition at 10 µM
T2 sequence (P21917 whole entry): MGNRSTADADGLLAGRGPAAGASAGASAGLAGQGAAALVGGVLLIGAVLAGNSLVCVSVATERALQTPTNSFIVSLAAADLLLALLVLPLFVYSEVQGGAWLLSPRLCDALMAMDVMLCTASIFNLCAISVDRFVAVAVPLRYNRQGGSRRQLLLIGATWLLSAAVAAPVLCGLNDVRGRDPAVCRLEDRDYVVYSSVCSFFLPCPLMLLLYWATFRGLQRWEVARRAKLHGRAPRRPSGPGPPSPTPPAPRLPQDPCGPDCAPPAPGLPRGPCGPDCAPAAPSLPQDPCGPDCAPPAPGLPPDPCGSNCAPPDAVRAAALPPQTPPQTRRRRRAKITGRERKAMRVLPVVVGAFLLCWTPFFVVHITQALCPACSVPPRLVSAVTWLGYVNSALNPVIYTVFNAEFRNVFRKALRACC

[3] = DRUGMATRIX: Glutamate, NMDA, Agonism radioligand binding (ligand: [3H] CGP-39653); format: cell membranes, Rattus norvegicus, Wistar, Cerebral cortex, Membrane; details: Not Active = under 50% inhibition at 10 µM
[4] = target: Epidermal growth factor receptor (Homo sapiens, UniProt P00533); test: DRUGMATRIX: Protein Tyrosine Kinase, EGF Receptor enzyme inhibition (substrate: Poly(Glu:Tyr)); format: cell-based, Insect cells; details: insect cells; Not Active = under 50% inhibition at 10 µM
[5] = target: T3, Type-2 angiotensin II receptor (Homo sapiens, UniProt P50052); format: cell-based; details: cho-k1; further: in other assays of this panel Not Active means under 50% inhibition at 10 µM
T3 sequence (P50052 whole entry): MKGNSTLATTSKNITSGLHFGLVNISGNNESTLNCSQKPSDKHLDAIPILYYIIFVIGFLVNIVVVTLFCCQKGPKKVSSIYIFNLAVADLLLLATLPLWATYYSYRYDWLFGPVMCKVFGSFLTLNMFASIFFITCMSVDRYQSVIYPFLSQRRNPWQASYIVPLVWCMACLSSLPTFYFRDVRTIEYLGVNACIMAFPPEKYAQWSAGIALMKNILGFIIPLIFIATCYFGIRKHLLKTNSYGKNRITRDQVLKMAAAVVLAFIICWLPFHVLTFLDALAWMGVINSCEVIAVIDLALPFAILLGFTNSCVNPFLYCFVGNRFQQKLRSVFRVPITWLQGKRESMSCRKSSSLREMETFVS

[6] = target: T4, Muscarinic acetylcholine receptor M2 (Homo sapiens, UniProt P08172); format: cell membranes, CHO-K1, Membrane; details: cho-k1; further: in other assays of this panel Not Active means under 50% inhibition at 10 µM
T4 sequence (P08172 whole entry): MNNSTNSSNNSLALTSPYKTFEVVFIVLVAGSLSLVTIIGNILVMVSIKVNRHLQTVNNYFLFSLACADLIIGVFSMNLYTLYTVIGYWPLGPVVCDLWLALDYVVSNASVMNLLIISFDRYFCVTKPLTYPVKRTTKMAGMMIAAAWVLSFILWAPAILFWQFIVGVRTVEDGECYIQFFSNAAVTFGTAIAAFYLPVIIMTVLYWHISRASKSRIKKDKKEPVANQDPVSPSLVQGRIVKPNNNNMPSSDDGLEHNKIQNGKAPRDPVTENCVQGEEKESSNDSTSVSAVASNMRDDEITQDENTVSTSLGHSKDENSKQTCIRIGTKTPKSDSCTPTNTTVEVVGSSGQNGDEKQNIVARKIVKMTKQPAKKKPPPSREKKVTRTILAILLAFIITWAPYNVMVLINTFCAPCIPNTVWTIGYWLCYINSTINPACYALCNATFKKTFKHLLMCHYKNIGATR

[7] = DRUGMATRIX: GABAA, Flunitrazepam, Central radioligand binding (ligand: [3H] Flunitrazepam); format: cell membranes, Rattus norvegicus, Wistar, Brain, Membrane; details: Not Active = under 50% inhibition at 10 µM
[8] = target: Mu-type opioid receptor (Homo sapiens, UniProt P35372); test: DRUGMATRIX: Opiate mu (OP3, MOP) radioligand binding (ligand: [3H] Diprenorphine); format: cell membranes, CHO-K1, Membrane; details: cho-k1; Not Active = under 50% inhibition at 10 µM
Chain of Mu-type opioid receptor (P35372 whole entry): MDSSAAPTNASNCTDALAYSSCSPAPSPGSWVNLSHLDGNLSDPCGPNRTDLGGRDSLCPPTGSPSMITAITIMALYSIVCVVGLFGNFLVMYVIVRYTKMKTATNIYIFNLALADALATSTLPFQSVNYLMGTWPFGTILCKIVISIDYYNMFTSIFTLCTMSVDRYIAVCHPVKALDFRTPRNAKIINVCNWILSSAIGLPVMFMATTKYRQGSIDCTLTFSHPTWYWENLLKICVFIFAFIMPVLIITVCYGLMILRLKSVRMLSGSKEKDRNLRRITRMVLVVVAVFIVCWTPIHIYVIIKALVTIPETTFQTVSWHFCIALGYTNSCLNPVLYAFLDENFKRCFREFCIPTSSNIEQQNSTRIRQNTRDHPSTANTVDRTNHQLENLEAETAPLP

C=C(C)[C@H]1Cc2c(ccc3c2O[C@@H]2COc4cc(OC)c(OC)cc4[C@@H]2C3=O)O1 [ROTENONE]
Not Active: IC50 [1] | Ki [1] | IC50 [2] | IC50 [3] | Ki [3] | IC50 [4] | IC50 [5] | IC50 [6] | IC50 [7] | Ki [7]

CC(C)OC(=O)C(C)(C)Oc1ccc(C(=O)c2ccc(Cl)cc2)cc1 [FENOFIBRATE]
Not Active: IC50 [8] | IC50 [1] | Ki [1] | IC50 [2] | IC50 [4] | IC50 [5] | IC50 [6]

CCN(CC)CC#CCOC(=O)C(O)(c1ccccc1)C1CCCCC1 (configuration not stated) [OXYBUTYNIN]
Not Active: IC50 [8] | IC50 [1] | Ki [1] | IC50 [2] | IC50 [4] | IC50 [5]

CC(=O)Nc1nnc(S(N)(=O)=O)s1 [ACETAZOLAMIDE]
Not Active: IC50 [8] | IC50 [1] | Ki [1] | IC50 [2] | IC50 [4] | IC50 [5] | IC50 [6]

COc1cc(N)nc2[nH]c(-c3ccc(F)cc3)c(-c3ccncc3)c12
Not Active: IC50 [8] | IC50 [1] | Ki [1] | IC50 [2] | IC50 [3] | Ki [3] | IC50 [5] | IC50 [6] | IC50 [7] | Ki [7]

THIMEROSAL
Not Active: IC50 [1] | Ki [1] | IC50 [2] | Ki [2] | IC50 [3] | Ki [3] | IC50 [4] | Ki [4] | IC50 [5] | Ki [5] | IC50 [6] | Ki [6] | IC50 [7] | Ki [7]

CC[C@@H](CO)NC(=O)[C@@H]1C=C2c3cccc4c3c(cn4C)C[C@H]2N(C)C1 [METHYSERGIDE]
Not Active: IC50 [8] | IC50 [1] | Ki [1] | IC50 [2] | IC50 [4] | IC50 [5] | IC50 [6]

NC[C@H]1O[C@H](O[C@H]2[C@H](O)[C@@H](O[C@H]3O[C@H](CO)[C@@H](O)[C@H](N)[C@H]3O)[C@H](N)C[C@@H]2N)[C@H](N)C[C@@H]1O [TOBRAMYCIN]
Not Active: IC50 [8] | IC50 [2] | IC50 [3] | Ki [3] | IC50 [4] | IC50 [5] | IC50 [6] | IC50 [7] | Ki [7]

CN[C@@H]1[C@H](O)[C@H](NC)[C@H]2O[C@@]3(O)C(=O)C[C@@H](C)O[C@H]3O[C@@H]2[C@H]1O [SPECTINOMYCIN]
Not Active: IC50 [8] | IC50 [2] | IC50 [3] | Ki [3] | IC50 [4] | IC50 [5] | IC50 [6] | IC50 [7] | Ki [7]

O=c1[nH]c2ccccc2n1CCCN1CCC(n2c(=O)[nH]c3cc(Cl)ccc32)CC1 [DOMPERIDONE]
Not Active: IC50 [2] | IC50 [4] | IC50 [5] | IC50 [6]

COc1ccc(CN2CCNCC2)c(OC)c1OC [TRIMETAZIDINE]
Not Active: IC50 [8] | IC50 [2] | IC50 [3] | Ki [3] | IC50 [4] | IC50 [5] | IC50 [6] | IC50 [7] | Ki [7]
